Laboratory results reported in patent US9981969B2, “Imidazole derivatives and methods of use thereof for improving the pharmacokinetics of a drug” (MERCK SHARP & DOHME CORP., priority 2013, dated 2018).

How the values were obtained:
CYP3A4 = molecular target: T1, CYP3A4 (Homo sapiens, UniProt P08684); assay: Cocktail assay for CYPs in human liver microsomes, midazolam 1′-hydroxylation (3A4); format: biochemical; conditions: 2 μM midazolam, 10 min at 37° C.
T1 construct: 0.1 mg/mL protein human liver microsomes (BD Gentest); tissue BD Gentest; host or cells: human liver microsomes
T1 sequence (P08684 whole entry): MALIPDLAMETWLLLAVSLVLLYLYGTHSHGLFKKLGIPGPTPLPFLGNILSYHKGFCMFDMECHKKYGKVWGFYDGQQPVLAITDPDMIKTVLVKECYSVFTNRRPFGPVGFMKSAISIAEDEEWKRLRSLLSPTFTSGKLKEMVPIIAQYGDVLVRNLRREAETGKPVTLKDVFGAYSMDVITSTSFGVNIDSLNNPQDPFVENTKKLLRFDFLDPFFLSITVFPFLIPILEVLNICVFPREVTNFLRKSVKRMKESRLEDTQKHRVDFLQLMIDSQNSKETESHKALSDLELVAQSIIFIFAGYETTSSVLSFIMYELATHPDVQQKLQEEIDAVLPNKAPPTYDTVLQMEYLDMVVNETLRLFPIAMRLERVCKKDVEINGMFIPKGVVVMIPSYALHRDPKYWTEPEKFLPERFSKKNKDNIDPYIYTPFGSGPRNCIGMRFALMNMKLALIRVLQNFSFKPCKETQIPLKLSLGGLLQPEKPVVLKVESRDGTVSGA
Protocol: (§1) This assay was performed in a standard 96-well plate design. IC50 values were calculated from the percent inhibition observed for each test compound at 6 concentrations (for example, 0.0032, 0.016, 0.08, 0.4, 2 and 10 μM). The incubation substrate mix contains 10 μM phenacetin (1A2), 5 μM diclofenac (2C9), 30 μM mephenytoin (2C19), 5 μM dextromethorphan (2D6) and 2 μM midazolam (3A4), 0.1 mg/mL protein human liver microsomes (BD Gentest), 1 mM NAPDH, 3.3 mM MgCl2 and 100 mM potassium phosphate buffer (pH 7.4). The production of the metabolite of each probe substrate was determined after incubation for 10 min at 37° C. Quantitation of the metabolite peak area ratio against an internal standard (tolbutamide) was determined by LC/MS/MS analysis following acetonitrile treatment of the incubations.
(§2) Samples were analyzed in the MRM mode with a SCIEX API-4000 mass spectrometer (Applied Biosystems, Foster City, Calif.), with a Shimadzu LC-20 AD pump (Shimadzu corporation, Kyoto, JP) and a CTC PAL autosampler (Agilent Technologies, Switzerland). A Phenomenex, Luna, 5 μm, 100A, 2.00×30 mm HPLC column was used for the separation. The mobile phases were: (A) 0.1% formic acid in water and (B) 0.1% formic acid in acetonitrile. The binary gradient was as follows. AutoSampler: CTC PAL
(§3) The peak area ratio of the analyte to the internal standard was used to quantify the metabolite. The values of peak area ratios in the presence of test compound were compared to those of maximum or minimum controls and were expressed as % inhibition by interpolating between the maximum and minimum peak area ratios. Incubations with no inhibitor were defined as the maxima. The following equation was used to calculate the % inhibition: [1−[(X−Low control)/(High control−Low control)]]*100 For the IC50 calculation, SigmaPlot was used to plot the mean % inhibition versus the test compound concentrations and for non-linear regression analysis of the data. Depending on the range of data points defining the inhibition curve, the data may have been fit to the 4-parameter logistic equation.

CYP1A2 = molecular target: T2, CYP1A2 (Homo sapiens, UniProt P05177); assay: Cocktail assay for CYPs in human liver microsomes, phenacetin O-deethylation (1A2); format: biochemical; conditions: 10 μM phenacetin, 10 min at 37° C.
T2 construct: 0.1 mg/mL protein human liver microsomes (BD Gentest); tissue BD Gentest; host or cells: human liver microsomes
T2 sequence (P05177 1-516): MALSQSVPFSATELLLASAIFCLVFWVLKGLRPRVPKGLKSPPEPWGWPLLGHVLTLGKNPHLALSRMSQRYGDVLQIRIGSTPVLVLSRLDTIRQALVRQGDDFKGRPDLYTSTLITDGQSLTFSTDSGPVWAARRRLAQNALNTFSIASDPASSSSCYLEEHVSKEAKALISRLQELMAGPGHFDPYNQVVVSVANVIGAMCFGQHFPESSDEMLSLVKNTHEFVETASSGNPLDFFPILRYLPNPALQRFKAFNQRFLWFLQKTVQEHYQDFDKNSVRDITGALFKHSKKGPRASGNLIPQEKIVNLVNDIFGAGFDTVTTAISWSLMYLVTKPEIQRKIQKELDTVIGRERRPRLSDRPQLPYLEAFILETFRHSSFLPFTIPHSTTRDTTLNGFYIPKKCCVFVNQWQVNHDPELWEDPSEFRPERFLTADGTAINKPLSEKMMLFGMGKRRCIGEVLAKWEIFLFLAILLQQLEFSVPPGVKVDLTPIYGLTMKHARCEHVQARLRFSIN
Protocol: as §1, §2, §3

CYP2C9 = molecular target: T3, CYP2C9 (Homo sapiens, UniProt P11712); assay: Cocktail assay for CYPs in human liver microsomes, diclofenac 4′-hydroxylation (2C9); format: biochemical; conditions: 5 μM diclofenac, 10 min at 37° C.
T3 construct: 0.1 mg/mL protein human liver microsomes (BD Gentest); tissue BD Gentest; host or cells: human liver microsomes
T3 sequence (P11712 whole entry): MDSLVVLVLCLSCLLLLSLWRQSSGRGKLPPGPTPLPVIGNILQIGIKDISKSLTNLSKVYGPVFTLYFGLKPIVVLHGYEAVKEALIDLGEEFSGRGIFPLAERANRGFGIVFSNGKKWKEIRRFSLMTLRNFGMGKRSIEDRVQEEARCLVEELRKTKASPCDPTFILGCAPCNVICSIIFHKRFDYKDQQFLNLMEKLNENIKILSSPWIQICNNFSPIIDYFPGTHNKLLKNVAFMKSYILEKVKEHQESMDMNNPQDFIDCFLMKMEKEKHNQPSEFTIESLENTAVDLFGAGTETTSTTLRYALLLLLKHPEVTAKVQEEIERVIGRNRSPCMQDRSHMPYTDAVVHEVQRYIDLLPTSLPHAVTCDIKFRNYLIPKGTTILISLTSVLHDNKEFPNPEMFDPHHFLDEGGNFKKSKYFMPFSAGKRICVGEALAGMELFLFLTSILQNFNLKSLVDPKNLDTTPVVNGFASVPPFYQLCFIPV
Protocol: as §1, §2, §3

CYP2C19 = molecular target: T4, CYP2C19 (Homo sapiens, UniProt P33261); assay: Cocktail assay for CYPs in human liver microsomes, mephenytoin 4′-hydroxylation (2C19); format: biochemical; conditions: 30 μM mephenytoin, 10 min at 37° C.
T4 construct: 0.1 mg/mL protein human liver microsomes (BD Gentest); tissue BD Gentest; host or cells: human liver microsomes
T4 sequence (P33261 whole entry): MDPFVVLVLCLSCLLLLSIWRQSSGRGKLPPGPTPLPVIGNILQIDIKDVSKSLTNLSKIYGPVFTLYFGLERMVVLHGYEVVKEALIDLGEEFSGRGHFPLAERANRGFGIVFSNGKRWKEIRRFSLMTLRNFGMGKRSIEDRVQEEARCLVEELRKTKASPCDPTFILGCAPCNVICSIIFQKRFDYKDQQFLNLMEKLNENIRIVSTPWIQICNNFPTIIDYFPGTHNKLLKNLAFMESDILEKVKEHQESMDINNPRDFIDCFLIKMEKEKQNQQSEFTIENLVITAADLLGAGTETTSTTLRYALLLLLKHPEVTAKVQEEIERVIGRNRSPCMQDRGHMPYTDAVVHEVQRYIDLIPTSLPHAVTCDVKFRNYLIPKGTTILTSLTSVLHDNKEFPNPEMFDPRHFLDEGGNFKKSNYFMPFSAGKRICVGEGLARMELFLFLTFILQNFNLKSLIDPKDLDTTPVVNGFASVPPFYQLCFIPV
Protocol: as §1, §2, §3

CYP2D6 = molecular target: T5, CYP2D6 (Homo sapiens, UniProt P10635); assay: Cocktail assay for CYPs in human liver microsomes, dextromethorphan O-demethylation (2D6); format: biochemical; conditions: 5 μM dextromethorphan, 10 min at 37° C.
T5 construct: 0.1 mg/mL protein human liver microsomes (BD Gentest); tissue BD Gentest; host or cells: human liver microsomes
T5 sequence (P10635 whole entry): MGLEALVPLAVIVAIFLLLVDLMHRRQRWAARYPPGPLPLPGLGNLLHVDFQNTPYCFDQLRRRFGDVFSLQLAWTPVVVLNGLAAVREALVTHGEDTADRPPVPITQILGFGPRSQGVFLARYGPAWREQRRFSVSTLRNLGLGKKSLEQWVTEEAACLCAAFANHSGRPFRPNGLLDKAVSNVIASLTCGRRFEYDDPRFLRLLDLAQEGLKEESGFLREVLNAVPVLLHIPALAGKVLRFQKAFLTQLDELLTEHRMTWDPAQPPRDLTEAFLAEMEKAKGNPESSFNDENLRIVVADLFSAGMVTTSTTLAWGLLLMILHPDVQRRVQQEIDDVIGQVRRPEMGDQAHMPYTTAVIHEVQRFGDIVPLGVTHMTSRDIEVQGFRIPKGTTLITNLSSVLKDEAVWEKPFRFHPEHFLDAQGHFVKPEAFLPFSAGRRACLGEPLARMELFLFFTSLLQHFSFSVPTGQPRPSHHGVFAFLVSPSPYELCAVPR
Protocol: as §1, §2, §3

human CYP11B1 = molecular target: T6, human CYP11B1 (Homo sapiens, UniProt P15538); assay: IC50 vs CYP11B1 by measurement of cortisol synthesis in V79 cells; format: cell-based; conditions: V79 cells expressing human CYP11B1, 1500 nM RSS, cortisol HTRF
T6 construct: expressed in transfected cells
T6 sequence (P15538 25-503): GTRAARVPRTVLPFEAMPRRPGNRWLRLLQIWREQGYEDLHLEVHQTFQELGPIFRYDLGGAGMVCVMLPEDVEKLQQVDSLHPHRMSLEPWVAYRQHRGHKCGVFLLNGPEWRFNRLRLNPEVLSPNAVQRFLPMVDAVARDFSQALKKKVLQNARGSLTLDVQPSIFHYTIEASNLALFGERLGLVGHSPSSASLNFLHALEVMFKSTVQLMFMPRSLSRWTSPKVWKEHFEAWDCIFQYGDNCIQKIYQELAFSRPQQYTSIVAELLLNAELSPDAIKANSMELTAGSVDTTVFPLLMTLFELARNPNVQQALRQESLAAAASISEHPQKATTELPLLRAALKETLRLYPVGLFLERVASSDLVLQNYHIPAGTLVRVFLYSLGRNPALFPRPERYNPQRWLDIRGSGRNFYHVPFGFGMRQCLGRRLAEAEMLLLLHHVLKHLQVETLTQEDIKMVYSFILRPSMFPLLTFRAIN
Protocol: (§4) This assay was performed in a standard 384-well plate design using cultured V79 cells stably expressing human CYP11B1 or human CYP11B2. Test compounds at 10 concentrations (for example, 10000, 3333.3, 1111.1, 370.4, 123.5, 41.2, 13.7, 4.6, 1.5 and 0.5 nM) were added in 384-well plate after the cell-seeding procedure. The incubation substrate contains 1500 nM RSS for CYP11B1 assay/750 nM DOC for CYP11B2 assay. The Cortisol/Aldosterone production of cell culture supernatant was determined by Cortisol/Aldosterone HTRF kit after for about 15 hours incubation at RT (protect from light). IC50 (nM) values were calculated from the percent inhibition observed for each test compound at 10 concentrations.
(§5) The assay plate was read using Envision (Perkin Elmer, Waltham, Mass.) at 665 nm and 590 nm (using Filter Barcode of 217#, 205#; Mirror Barcode of 446#).
(§6) Data are analyzed using Assay Data Analyzer. All ratio data (665 nm/590 nm) are back calculated according to the standard curve, resulting in Cortisol/Aldosterone concentrations. IC50 (nM) values are reported as the Inflection Point (IP) of a four parameter fit of the titration data.
(§7) The following equation was used to calculate the % inhibition: % Activity=100×{1−(Sample_back calculated Cortisol/Aldosterone concentration−LC_back calculated Cortisol/Aldosterone concentration)/(HC_back calculated Cortisol/Aldosterone concentration−LC_back calculated Cortisol/Aldosterone concentration)} Curve Fitting: Four Parameter Logistic: […]

human CYP11B2 = molecular target: T7, human CYP11B2 (Homo sapiens, UniProt P19099); assay: IC50 vs CYP11B2 by measurement of aldosterone synthesis in V79 cells; format: cell-based; conditions: V79 cells expressing human CYP11B2, 750 nM DOC, aldosterone HTRF
T7 construct: expressed in transfected cells
T7 sequence (P19099 25-503): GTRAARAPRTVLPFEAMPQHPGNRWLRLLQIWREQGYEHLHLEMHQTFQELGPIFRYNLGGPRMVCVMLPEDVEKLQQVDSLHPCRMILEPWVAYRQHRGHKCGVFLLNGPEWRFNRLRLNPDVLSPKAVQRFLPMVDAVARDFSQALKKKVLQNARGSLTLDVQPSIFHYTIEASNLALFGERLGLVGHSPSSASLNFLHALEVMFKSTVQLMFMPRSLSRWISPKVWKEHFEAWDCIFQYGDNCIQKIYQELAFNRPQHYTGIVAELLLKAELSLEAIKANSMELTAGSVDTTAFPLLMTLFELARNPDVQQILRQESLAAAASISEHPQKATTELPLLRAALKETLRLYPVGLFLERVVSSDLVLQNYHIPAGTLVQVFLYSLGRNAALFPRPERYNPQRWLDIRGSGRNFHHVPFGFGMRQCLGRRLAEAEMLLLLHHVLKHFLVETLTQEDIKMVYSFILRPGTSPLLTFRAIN
Protocol: as §4, §5, §6, §7

SMILES | IC50 (CYP3A4) [µM] | IC50 (CYP1A2) [µM] | IC50 (CYP2C9) [µM] | IC50 (CYP2C19) [µM] | IC50 (CYP2D6) [µM] | IC50 (human CYP11B1) [µM] | IC50 (human CYP11B2) [µM]
C[C@@H](c1ccccc1-c1ccc(F)cc1)n1cncc1C(=O)N1CCC2NC(=O)CO[C@@H]2C1 (mixture of isomers) [Compound 50] | 0.0053 | > 10 | > 10 | > 10 | 8.08 | 26.9 | > 50
C[C@@H](c1ccccc1-c1ccc(F)cc1)n1cncc1C(=O)N1CCCC(N2CCC(C)(O)CC2)CC1 (single isomer, unassigned) [Compound 3a] | 0.0073 | > 10 | > 10 | > 10 | 4.05 | 37.4 | > 50
C[C@@H](c1ccccc1-c1ccc(F)cc1)n1cncc1C(=O)N1CCCC(N2CCC(C)(O)CC2)CC1 (single isomer, unassigned) [Compound 3b] | 0.0066 | > 10 | > 10 | > 10 | 2.39 | 12.6 | 42.6
C[C@@H](c1ccccc1-c1ccc(F)cc1)n1cncc1C(=O)N1CCC(N2CCC(O)CC2)CC1 [Compound 1] | 0.0068 | > 10 | > 10 | > 10 | 6.55 | 33.5 | > 50
C[C@@H](c1ccccc1-c1ccc(F)cc1)n1cncc1C(=O)N1CC[C@@H](N2CCC(O)CC2)[C@@H](F)C1 [Compound 2] | 0.005 | > 10 | > 10 | > 10 | > 10 | 24.3 | 31
C[C@@H](c1ccccc1-c1ccc(F)cc1)n1cncc1C(=O)N1CC[C@H]2NCCO[C@@H]2C1 [Compound 4] | 0.0058 | > 10 | > 10 | > 10 | 4.87 | 13.9 | > 50
C[C@@H](c1ccccc1-c1ccc(F)cc1)n1cncc1C(=O)N1CCn2c(nnc2C2CC2)C1 [Compound 5] | 0.0061 | > 10 | > 10 | 7.57 | ≥ 10 | 42.6 | > 50
C[C@@H](c1ccccc1-c1ccc(F)cc1)n1cncc1C(=O)N1CCN2C[C@H](O)C[C@H]2C1 [Compound 6, (1-((S)-1-(4′-fluoro-[1,1′-biphenyl]-2-yl)ethyl)-1H-imidazol-5-yl)((7R,8aS)-7-hydroxyhexahydro-pyrrolo[1,2-a]pyrazin-2(1H)-yl)methanone] | 0.0089 | > 10 | > 10 | > 10 | > 10 | 29.7 | > 50
CCc1nnc2n1CCN(C(=O)c1cncn1[C@@H](C)c1ccccc1-c1ccc(F)cc1)C2 [Compound 7, (S)-(3-ethyl-5,6-dihydro-[1,2,4]triazolo[4,3-a]pyrazin-7(8H)-yl)(1-(1-(4′-fluoro-[1,1′-biphenyl]-2-yl)ethyl)-1H-imidazol-5-yl)methanone] | 0.0057 | > 10 | > 10 | > 10 | > 10 | 45.5 | > 50
C[C@@H](c1ccccc1-c1ccc(F)cc1)n1cncc1C(=O)N1CCC(N2CCC[C@H](O)C2)CC1 [Compound 8] | 0.0056 | > 10 | > 10 | > 10 | > 10 | 21 | > 50
C[C@@H](c1ccccc1-c1ccc(F)cc1)n1cncc1C(=O)N1CCC(N2CCCC(C)(O)C2)CC1 (some centres unmarked) [Compound 9] | 0.0066 | > 10 | > 10 | > 10 | 6.63 | 24.9 | > 50
CO[C@H]1CN(C2CCN(C(=O)c3cncn3[C@@H](C)c3ccccc3-c3ccc(F)cc3)CC2)CC[C@@H]1O [Compound 10] | 0.005 | > 10 | > 10 | > 10 | 5.91 | > 50 | > 50
CO[C@H]1CN(C2CCN(C(=O)c3cncn3[C@@H](C)c3ccccc3-c3ccc(F)cc3)CC2)CC[C@H]1O [Compound 11] | 0.006 | > 10 | > 10 | > 10 | 7.06 | 26.7 | > 50
CO[C@@H]1CN(C2CCN(C(=O)c3cncn3[C@@H](C)c3ccccc3-c3ccc(F)cc3)CC2)CC[C@@H]1O [Compound 12] | 0.0062 | > 10 | > 10 | > 10 | 5.08 | 41.9 | > 50
